Here are results for 1 molecule from patent US9808434B2, “Compound for treating cancer and diabetes” (CITY OF HOPE, priority 2011, dated 2017).

One experiment relates to Hs600T. The experiment can be described thus: MTT assay, Hs600T. It counts as cell-based. Particulars: Homo sapiens. How it is done: Cell density measurements were performed using a hemocytometer to count reproductive cells resistant to staining with trypan blue. Approximately 20,000 cells were plated into each well of 96-well flat-bottomed micro-titer plates. After 12 h or 24 h incubation at 37° C., medium containing either COH-SR4 (ranging 0-200 μM) or elesclomol (ranging 0-20 μM) were added to the cells. After 24 h, 48 h or 96 h incubation, 20 μL of 5 mg/mL MTT were introduced to each well and incubated for 2 h. The plates were centrifuged and medium was decanted. Cells were subsequently dissolved in 100 μl DMSO with gentle shaking for 2 h at room temperature, followed by measurement of OD570 (91).
Cells of highly aggressive mouse melanoma cell line B16-F0 or human melanoma cell line Hs600T were incubated with various doses of COH-SR4 (1, 2.5, 5, 10, 25, 50, or 100 μM). The cell viabilities after treatment of 48 hours and 96 hours were measured and summarized in FIGS. 54A and 55A, respectively. […] Data were presented as mean±Standard Deviation from two separate determinations with eight replicate each (n=16).

The next experiment deals with PBT028. The experiment can be described thus: Glioma ATP viability assay, PBT028. Particulars: Table 1; 72 hours. Type of experiment: cell-based. How it is done: Cells of each cell line (U251, U87, PBT-017, PBT018, PBT003 and PBT028) were treated with various concentrations (0˜100 μM) of COH-SR4 for 72 hours. Cell viabilities were determined by ATP viability assays. Data were represented as a ratio to vehicle (DMSO) control, and plotted as mean±SEM (n=12) obtained from 2˜3 experiments (FIG. 34A).

Experiment [1] relates to isolated mouse liver mitochondria. The experiment is described as follows: Oxygen consumption rate in isolated liver mitochondria. Particulars: increasing concentrations.
Protocol: Mitochondria were isolated from the livers of 10 week old male C57BL/6 mice. Mice were euthanized by CO2 inhalation followed by cervical dislocation. Livers were removed, minced with scissors, and immediately placed in ˜10 volumes of ice-cold mitochondria isolation medium (250 mM sucrose, 10 mM Tris-HCl, 1 mM EGTA, 1% fatty acid/endotoxin-free BSA, pH 7.4). The presence of BSA in the medium allowed the endogenous free fatty acids to be chelated from the homogenate suspension. The tissues were homogenized using 25-30 strokes in Potter-Elvehjem tissue grinder. Following centrifugation at 800×g for 10 min at 4° C., the fats/lipids were carefully aspirated, and the remaining supernatant was filtered through sterile 0.40 micron nylon mesh membrane and centrifuged at 8,000×g for 10 min at 4° C. […] The mitochondrial protein concentration was determined by the DC Protein Assay kit (Bio-Rad, Hercules, Calif.) with BSA as a standard. […]
Isolated mouse liver mitochondria (2 μg/well or 5 μg/well) were seeded on Seahorse 96-well plate, and respiration (OCR) was measured on mitochondria respiring either on pyruvate (10 mM) and malate (2 mM) or succinate (10 mM) and rotenone (2 μM) using a Seahorse 96 Flux Analyzers according to Rogers et al (90).
Another experiment relates to 3T3-L1 cells. The experiment can be described thus: Adipocyte differentiation, Oil Red O staining. It counts as cell-based, mouse. Particulars: preadipocytes 7 days in differentiating media (DM) + compound. The protocol:
Two-day post-confluent 3T3-L1 preadipocyte cells were allowed to differentiate for 7 days in the presence of nothing, DM only, DM+ a test compound (COH-SR1, COH-SR2, COH-SR3, COH-SR4, COH-SR7, LR23 or LR59), or DM+ a positive control (TSA, C75, or Apicidin).
3T3-L1 preadipocytes cells were treated with differentiating media (DM) with COH-SR4 (1 μM, 3 μM, or 5 μM) or without for 7 days. […] As used in FIG. 9C, U=undifferentiated, D=differentiated with cocktail media.

In experiment [2] the test system is undifferentiated 3T3-L1 cells. The experiment is described as follows: Preadipocyte viability, MTT assay. Type of experiment: cell-based, mouse. Particulars: 3 days, 2.5-25 μM. The protocol: Undifferentiated 3T3-LI cells were treated with COH-SR2, COH-SR3, COH-SR4, COH-SR7, LR23 or LR59 for 3 days at a concentration of 2.5 μM, 5 μM, 10 μM, 15 μM, 20 μM, or 25 μM. The cell viability for each treatment was determined by MTT assay (FIG. 7).

The nature of experiment [3]: Metabolic effects in Type 2 diabetes db/db mice. It counts as in vivo, mouse. Particulars: five weeks. The protocol:
All animal experiments were carried out in accordance with the protocols approved by the Institutional Animal Care and Use Committee of the City of Hope. Nine-week old male C57BL/6J mice fed on high fat diet (HFD, 60% fat) and 10-week old db/db mice were given COH-SR4 (5 mg/kg B.W.) or vehicle (corn oil) via oral gavage every other day for six and five weeks, respectively. Oral glucose tolerance test was performed on animals after an overnight fast. All other metabolic parameters were measured at the end of study. Liver samples were stained with H&E and Oil Red O.
All data represented are mean±SEM. *P<0.05, **P<0.01 vs. LFD or db/+; ^#P<0.05, ^##P<0.01 vs. HFD or db/db. n=12 animals per group for HFD mice. LFD=low fat diet (lean), HFD=high fat diet (obese). n=8 animals per group for db/db mice.
Representative mice in each treatment group (db/+, db/db, db/db treated with COH-SR4 (db/db+SR4)) depicted gross images of whole body shape (top) and abdominal fat (bottom) (FIG. 85H).

“Also recorded” adds a separate entry of the source.

Broadly, the IC50 is the point on the concentration scale where inhibition reaches its midpoint. Higher therefore signals weaker potency in that assay. In the experiment with Hs600T (48 h), `O=C(Nc1cc(Cl)cc(Cl)c1)Nc1cc(Cl)cc(Cl)c1` [COH-SR4, 1,3-bis(3,5-dichlorophenyl) urea] gave an IC50 of about 10 µM. For the same molecule, the IC50 in the experiment on Hs600T (96 h) was about 6 µM. Moreover, in the experiment on PBT028, the IC50 worked out at 2 µM. The “OCR of mitochondria respiring on pyruvate and malate or succinate-rotenone” value in experiment [1] was “dose-dependently increased OCR of mitochondria”. Also, the “differentiation and accumulation of lipid droplets (Oil Red O staining)” value with 3T3-L1 cells was “dose-dependently inhibited differentiation and accumulation of lipid droplets; also recorded: prevented accumulation of fat droplets”. Besides, the “growth of undifferentiated preadipocytes (MTT)” value in experiment [2] is “inhibited growth of undifferentiated 3T3-L1 cells”. Moreover, in experiment [3] (5 mg/kg oral every other day), the body weight entry is on record as “decreased body weight”. Also, in experiment [3], the HbA1c levels entry was “lower HbA1c levels”, the fasting blood glucose entry is “improved fasting blood glucose”, the glucose tolerance result is reported as “improved” and the hepatic steatosis result was “reduced”. For the same molecule, the hepatic triglycerides result in experiment [3] was “reduced hepatic triglycerides”.
